row,SMILES,melting point [°C]
1,Cc1ccc(S(=O)(=O)OCP(=O)(OC(C)C)OC(C)C)cc1,37.5
2,CN1CCN(CCCC2CCN(C(=O)N3c4ccccc4C(=O)Nc4cccnc43)CC2)CC1,213 to 214
3,CC(C)(C)CNc1nc(C#Cc2ccccc2)ccc1[N+](=O)[O-],90 to 92
4,CS(=O)(=O)c1cccc(NC(=O)c2cnn3ccc(-c4ccc(C(F)(F)F)cc4)nc23)c1,254 to 255
5,CC(C)(C)OC(=O)NC[C@H]1CN(c2ccc3c(c2)CCCc2cnoc2-3)C(=O)O1,180 to 184
6,O=Cc1ccc(OCCc2coc(-c3ccccc3)n2)cc1,92 to 97
7,O=C(Nc1cc(Cl)cc(Cl)c1)c1cc(Br)cc(Br)c1O,181 to 182
8,NC(=O)c1cc2[nH]c3ccccc3c(=O)n2n1,315 to 325
9,CC(=O)Nc1cc(C)c(C)cc1OC(C)=O,156 to 158
10,CC(C)Oc1ccc(N)c(C(=O)O)c1,120 to 122
11,CCOC(=O)N(C(=S)NC(C)C)c1c(C(C)C)cc(Oc2ccccc2)cc1C(C)C,107 to 108
12,COC(=O)/C=C/c1nccs1,75 to 75.5
13,CC(C)(C)Nc1nc(C#N)c(C#N)nc1Cl,169 to 173
14,CN1CCC(=C2c3ccccc3CCn3cc(-c4ccccc4)nc32)CC1,172
15,CCOC(=O)C(Sc1ccc(O)cc1)c1ccc(Br)cc1 (stereo unspecified),55.6
16,CC(C)(C)C(NC(=O)c1ccc(Cl)cc1)NC(=NS(=O)(=O)c1ccccc1)Nc1cccnc1 (stereo unspecified),196 to 197
17,O=C(Nc1ccncc1)Nc1ccc(-c2nc(N3CCOCC3)c3nnn(C4CCOCC4)c3n2)cc1,332
18,Cc1cc(C)c(S(=O)(=O)Nc2cccnc2Nc2ccccc2)c(C)c1,140 to 142
19,CCCn1c(COCC)nc2c(N)nc3cc(OC4CCN(C(C)=O)CC4)ccc3c21,178 to 180
20,Cc1nc(N)c2nc(CCO)n(NC3CCOCC3)c2c1C,190 to 192
21,O=c1[nH]c(=O)n(Cc2ccc(OCCCCCCCCCOc3ccc(Cn4oc(=O)[nH]c4=O)cc3)cc2)o1,149 to 151
22,CC(C)c1cc(C(=O)Nc2ccc3[nH]c(C(=O)O)cc3c2)oc1C(C)C,240 to 243
23,COc1ccc(-c2[nH]nc3c2C(=O)c2c(NC(=O)NNC(=O)c4ccncc4)cccc2-3)cc1,248
24,CCOC(=O)CC(=O)c1cc(O)c(O)c([N+](=O)[O-])c1,136 to 137
25,Cc1nccc(N)c1N,170 to 171
26,ClCCOc1ccc(/C=C/c2nc3ccccc3o2)cc1,88 to 90

row,SMILES,melting point [°C]
1,CCCCCCCCCCCCC1=C(OC(=O)OC)C(=O)c2ccccc2C1=O,70 to 72
2,CCc1c(C(=O)c2cc(C)cc(C)c2)n(C/C=C/COC(C)=O)c(=O)[nH]c1=O,152 to 153
3,CNc1nc(-c2cccc(NC(=O)c3ccc(S(C)=O)cc3)c2)c2cc(OC)c(OC)cc2n1 (stereo unspecified),246 to 248
4,CS(=O)(=O)Nc1cc(C(c2cc(F)ccc2F)S(=O)(=O)c2ccc(Cl)cc2)c(Cl)cn1 (stereo unspecified),220 to 222
5,C=C(CC)C(=O)c1ccc(OCC(=O)NCCCCF)c(Cl)c1Cl,94 to 96
6,Nc1ccc2c(=O)n3c(nc2c1)C(=Cc1ccc(O)c(O)c1)CC3,263 to 265
7,O=C1SCCN1Cc1ccccc1,50 to 51
8,C=CCn1nc(C)c(C(=O)c2ccc(Cl)cc2Cl)c1O,161 to 163
9,Cc1cc(O)cc2c1N(C)C1N(C)CCC21C (stereo unspecified),146 to 148
10,Cc1cccc(N=C2NCCN2)c1C,141 to 144
11,Cc1noc(NS(=O)(=O)c2ccccc2-c2ccc(-c3ncco3)cc2CN(C)C(=O)c2cccc(F)c2)c1C,125 to 135
12,O=C(CCCC1CCCCC1)C1=C(O)COC1=O,38 to 42
13,CCC(C(=O)N(CC)CC)n1cc(Cl)c(-c2ccccc2)n1 (stereo unspecified),47 to 49
14,CCSC=C1C(=O)OC(C)(C)OC1=O,52 to 54
15,Cc1ccccc1NS(=O)(=O)c1cc([N+](=O)[O-])ccc1C,171 to 173
16,CCc1cn(C2OC(CNC(=O)C(C)Oc3c(Cl)cc(Cl)c(OC)c3Cl)C(O)C2F)c(=O)[nH]c1=O (stereo unspecified),210 to 211
17,CC(=O)Nc1c(OC(C)=O)cc(C)cc1[N+](=O)[O-],163 to 165
18,CCC1(C)CC(O)CC(C)(C)N1OC(C)c1ccccc1 (stereo unspecified),58 to 69
19,COc1cccc(OC)c1-c1cc(C(=O)NC2(C(=O)O)C3CCCC2CCC3)nn1-c1ccc(C(=O)N(C)CCCN(C)C)cc1C(C)C (stereo unspecified),160
20,CC(NC(=O)C(N)CC(=O)O)C(=O)NC1C(C)(C)SC1(C)C (stereo unspecified),57.2
21,OC1(c2ccc(Br)cc2)CCC2(CC1)OCCO2,156 to 158
22,COc1ccc(-c2cnn3cnnc3n2)cc1,282 to 284
23,CNC(=C[N+](=O)[O-])NCCN1CCC(C(=O)c2ccc(F)cc2)CC1,157 to 159
24,CC(Cc1c[nH]c2ccccc12)NC(=O)Oc1ccccc1 (stereo unspecified),89 to 92
25,CC(C(=O)OC12CC3CC(CC(C3)C1)C2)c1ccc2nc(N)sc2c1 (stereo unspecified),151 to 153
26,Cc1c(NC(=O)CC(C)(C)C)c(C)c2c(c1-c1nccs1)OCC2c1ccc(C(C)C)cc1 (stereo unspecified),164 to 166

row,SMILES,melting point [°C]
1,O=[N+]([O-])c1ccc(OCCCl)cc1,60
2,CCOC(=O)c1cn(CCCl)c2nc(N3CCN(C)CC3)ncc2c1=O,154 to 155
3,NC[C@@H]1C[C@@H](CC(=O)O)C(=O)N1CCCc1ccccc1,188 to 192
4,CCCCc1nc2cccc(C(=O)OCOC(=O)C(C)(C)C)c2n1Cc1ccc2nc(-c3ccccc3-c3nnn[nH]3)ncc2c1,126 to 128
5,CC(C)(C)C1=NN=C(N)SC1,75 to 77
6,O=C(Nc1ccccc1)c1ccc2c(c1)N(C1CC1)C=NS2(=O)=O,278 to 281
7,CN1CC2CC2(C(=O)O)C1 (stereo unspecified),193 to 195
8,NC(=O)c1csc(-c2cccc([N+](=O)[O-])c2)n1,239 to 241
9,c1ccc(CN2CCC3(CC2)Oc2ccccc2Cn2cccc23)cc1,109 to 111
10,O=c1[nH]nc(Br)c2ccccc12,268 to 271
11,CCOC(=O)c1cc(=O)c2cc(OCC(O)COc3ccc(C#N)cc3)ccc2o1 (stereo unspecified),150 to 152
12,NC(=S)c1ccccc1-c1ccccc1,213
13,COc1cc2c(cc1Br)-c1cc3c(n1CC2)C(=O)N(C(C)(C)C)CCC3,163 to 165
14,CN(C)c1ncc(NC(=O)c2cc3cc(C(F)(F)F)cnc3n2Cc2cccc(F)c2)cn1,236 to 238
15,O=C1Cc2ccccc2Oc2ccccc2C1,86
16,Oc1ccc(-c2noc(C3(CSc4ccccc4)CC3)c2-c2ccccc2)cc1,180 to 181
17,OC1CCN(Cc2cccc(F)c2)CC1,61 to 62
18,COc1ccc(C2(CCO)C=CC=CN2)cc1OC1CCCC1 (stereo unspecified),94 to 96
19,O=C1c2ccccc2C(=O)N1Cc1ccc(Cl)nc1,142 to 143
20,CCOC(=O)C1=C(N)NC(N)=C(C(=O)OCC)C1c1cccc2ccccc12,162 to 163
21,Nc1nc(O)c2c(n1)NCC(CCc1ccc(C(=O)N[C@@H](CCC(=O)O)C(=O)O)cc1)C2 (stereo partly specified),> 250
22,Cc1ccc(S(=O)(=O)Oc2n[nH]c(CO)c2C(C)(C)C)cc1,62 to 65
23,CCCc1nc(CSc2ccc(CCC(=O)O)cc2)c(C(=O)OCC)n1Cc1cc2c(cc1Cl)OCO2,174
24,O=C(O)CCC(=NOCc1ccc(OCc2cn3c(-c4ccccc4)cccc3n2)cc1)c1ccccc1,160 to 161
25,CC1Oc2ccc(CN3CCN(c4ccc(Cl)cn4)CC3)cc2NC1=O (stereo unspecified),197 to 198
26,CCCCn1cccc1C(=O)N(C)C,132

row,SMILES,melting point [°C]
1,COc1ccc(C2=NN(C3CCSCC3)C(=O)[C@H]3CC=CC[C@@H]23)cc1Cl (relative stereo),170 to 171
2,C=CCn1cnnc1-c1c(Cl)c(Cl)cc2nc(OC)c(OC)nc12,206 to 208
3,C(CCc1ccccc1)=C1CCN(Cc2nc3ccccc3[nH]2)CC1,163 to 165
4,CC1(C)NC(=O)c2ccc(O)cc21,231 to 233
5,CC(=O)SCC1CN2CCCC(C(=O)OC(C)(C)C)N2C1=O (stereo unspecified),92 to 93
6,Cc1c(NC(=O)c2ccc(OCCCC(F)(F)F)cc2F)ccc2cc(CN3CCCC3)cnc12,148
7,CC(=O)N1N=C(c2ccc([N+](=O)[O-])cc2)c2cc3c(cc2C=C1C)OCCOC3,202 to 204
8,COc1ccc(Cl)cc1C(=O)Nc1ccc(C(F)(F)F)cc1,132
9,CSc1ccc2ccc3ccccc3c(=O)c2c1,66.5 to 67.5
10,CC(C)c1ccc2c(c1)OC1(O)c3cccc(O)c3C(=O)C21O (stereo unspecified),205 to 207
11,O=C1OC2(CCN(C(=O)Nc3ncc(-c4ccccc4)cn3)CC2)c2c(F)cccc21,244 to 246
12,N#Cc1ccc(OCc2ccncc2)cc1OC(C(=O)O)c1ccccc1 (racemic),218 to 220
13,CC(C)c1cc(O)cc(C(C)C)c1NC(=O)CN1CCN(CCCSc2nc3ccccc3o2)CC1,201 to 203
14,CC(C)(O)C#Cc1ccc(C#N)cc1Cl,63 to 65
15,CCCc1c(OCc2ccc(Cc3nnn[nH]3)cc2)ccc(C(C)=O)c1O,184 to 187
16,CSc1cc(C#N)c(Oc2ccc(Cl)c(Cl)c2)cn1,96 to 97
17,Cn1nc(-c2c(F)cccc2Cl)nc1C(C)(O)c1ccc(Cl)cc1 (stereo unspecified),198 to 200
18,Nc1c(C(=O)c2cc(Cl)ccc2[N+](=O)[O-])[nH]c2cc(Cl)ccc12,233 to 234
19,CCn1c(=O)c2c(nc(/C=C/c3cc(OC)c(O)c(OC)c3)n2C)n(CC)c1=O,226
20,O=C(O)Cc1ccc(OCCNC(=O)C2Cc3ccccc3N2S(=O)(=O)c2ccc(-c3ccc(F)cc3)cc2)c(Cl)c1 (stereo unspecified),102 to 110
21,COc1cc(C(C)O)c(O)cc1OCCCN1CCC(c2noc3cc(F)ccc23)CC1 (stereo unspecified),156 to 158
22,O=c1[nH]c2ncc(-c3ccc(O)cc3)nc2n1CC1CCCO1 (stereo unspecified),256 to 258
23,CCN1CCC(=O)N(c2ccccc2C(C)C)C1=S,118 to 122

# From a melting point compilation (Tetko et al.; mined from patent text by program, amines drawn as free bases though some values may be those of a salt)
